Here are results for ten molecules from US7759101B2, “Ginsenoside glycosidases hydrolyzing ginsenoside sugar moieties and uses thereof” (priority 2000, dated 2010).

Assay [1] concerns ginsenoside glycosidase I. In words: Hydrolysis of ginsenosides with Fraction 36 (ginsenoside glycosidase I). In kind it is biochemical, Aspergillus niger. To be noted: Fraction 36; substrates Rb1, Rb2, Rc, Rd 0.5%; Rg3, F2, Rh2, C—K, Rg2 0.05%; pH 5.0, 30° C. The protocol: 10 ml of the enzyme solution obtained in 1.1 was subjected to a DEAE-Cellulose DE-52 column (Pharamcia, 1.5×6.7 cm) to absorb the enzyme protein. The column was then eluted with a NaCl gradient (0.06, 0.12, 0.18, 0.24, 0.3, 0.4, 0.5 and 0.6M).
Fractions 36 and 54 from the DEAE-Cellulose column appeared as one dot on a SDS-polyacrylamide gel, representing the purified enzymes.
Fraction 36 which was eluted with 0.12 M NaCl from the DEAE-Cellulose column was lyophilized and appeared as a single dot with a molecular weight of 51,000 Daltons when running on a SDS-polyacrylamide gel.
To observe the differences between the ginsenoside glycosidases of the invention and known exo-cellulases, the ginsenoside glycosidases of the invention were compared with cellulose β-glucosidase (E.C. 3.2.1.21) in two reactions with 0.5% ginsenosides Rb1 or Rd as substrate.

In assay [2] the test system is ginsenoside glycosidases from A. oryzae. In words: Hydrolysis of ginsenosides with crude ginsenoside glycosidases from A. oryzae, TLC. In kind it is biochemical, Aspergillus oryzae. To be noted: pH 5.0, 30° C., 18 hours. The protocol:
(§1) Aspergillus oryzae FFCCDL-39 g (available from Food Fermentation Culture Collection of Dalian Institute of Light Industry) was cultured with stirring in a medium containing 1% ginseng extracts and 3% wheat bran extracts at 30° C. for 64 hours. Cells were removed by centrifugation, after which (NH4)2SO4 powder was added to 2000 ml of the cell-free supernatant with stirring to 65% saturation. The solution was stored overnight at 4° C. and precipitated proteins were collected by centrifugation, resuspended in 80 ml of distilled water and dialyzed against 0.01M acetate buffer pH 5. Insolubles were removed by centrifugation, and the solution was adjusted to 200 ml with 0.01 M acetate buffer pH 5. The crude enzyme solution may be used to hydrolyze ginsenosides or to purify the enzymes.
Each 100 mg of ginsenosides Rb1, Rb2, Rc Re and Rd and each 10 mg of ginsenoside Rg3 and Rg2 were dissolved in separate tubes containing 10 ml of 0.01M acetate buffer pH 5. 10 ml of the crude enzyme solution obtained as above was added to each tube and allowed to react at 30° C. for 18 hours. Then 10 ml of n-butanol was added to stop the reactions. The products were measured by thin layer chromatography (TLC) (Silica gel 60-F254, Merck; chloroform:methanol:water 70:30:5). […]

The test system of assay [3] is ginsenoside glycosidases from A. niger. In words: Hydrolysis of ginsenosides with crude ginsenoside glycosidases from A. niger, products measured by TLC. To be noted: for effect of metal ions on the enzyme reaction: hydrolysis of Rb1, pH 5.0, 30°C. Format: biochemical, Aspergillus niger. The protocol:
as §1, with “niger FFCCDL-48” for “oryzae FFCCDL-39”, “g” for “g (available from Food Fermentation Culture Collection of Dalian Institute of Light Industry)”, “cultured” for “cultured with stirring”, “54” for “64”
100 mg each of ginsenosides Rb1, Rb2, Rc and Rd and 10 mg of ginsenoside Rg3 were dissolved in separate tubes containing 10 ml of 0.01M acetate buffer pH 5. 10 ml of the crude enzyme solution obtained in 1.1 was added to each tube and allowed to react at 30° C. for 18 hours. Then 10 ml of n-butanol was added to stop the reactions. The products were measured by thin layer chromatography (TLC) (Silica gel 60-F254, Merck; chloroform:methanol:water 70:30:5).
Experiments were carried out to explore the effects of temperature, pH, metal ions and reaction time on the enzyme reaction, in order to further characterize the enzymes.
100 mg of ginsenoside Rb1 was used in a reaction under the conditions as described in 1.2 and the effect of temperature was shown in Table 2.

Assay [4] concerns ginsenoside glycosidase I from ginseng plants. Briefly: Hydrolysis of ginsenosides with fraction 52 (ginsenoside glycosidase I) from ginseng plant. Format: biochemical. To be noted: Fraction 52; substrate 0.5%; 50° C., pH 5.0, 18 hours. The protocol: 200 g of fresh ginseng root was cut into pieces and added to 600 ml of 0.02 M acetate buffer pH 5. Supernatant was obtained by filtration after the mixture stand at 40° C. for 2 hours. To the supernatant (NH4)2SO4 was added gradually until 70% saturation and the mixture stand overnight at 4° C. Then protein pellets were collected by centrifugation and redissolved in 15 ml of distilled water. The solution was dialyzed against 0.02 M Tris-HCl pH 7.4. Insolubles were removed by centrifugation and the volume of the supernatant was adjusted to 20 ml.
5 ml of the enzyme solution was subjected to a DEAE-Cellulose DE-25 column (Whatman, 1.4×6.7 cm). The column was eluted with a KCl gradient (0.06, 0.12, 0.18 and 0.24 M) in 0.02 M Tris-HCl pH 7.4. After elution, each fraction was tested for the activity of hydrolyzing ginsenosides. […] Fraction 52 can also hydrolyze the glucosidic bond at the twentieth carbon atom of Rb and Rc to give ginsenoside F2.

The subject of assay [5] is ginsenoside glycosidases from wheat bran. Briefly: Hydrolysis of ginsenosides with ginsenoside glycosidases from wheat bran. Format: biochemical. To be noted: for effect of metal ion on the enzyme activity: enzymes from wheat bran. The protocol:
500 g of wheat bran was added to 2500 ml of 0.02 M acetate buffer pH 5 and extracted at 40° C. for 2 hours. 2000 ml of supernatant were obtained by filtration to which (NH4)2SO4 was added gradually with stirring until 70% saturation. The mixture stand at 4° C. overnight. Protein pellets were collected by centrifugation and redissolved in 80 ml of distilled water and dialyzed against 0.02 M acetate buffer pH 5.0. Insolubles were removed by centrifugation and the supernatant was adjusted to a volume of 200 ml to obtain the crude enzyme solution.
10 ml of the enzyme solution was allowed to react with 10 ml of 1% ginsenoside substrate at 40° C. for 20 hours.

[6] abbreviates: 10 ml of 1% ginsenoside substrate, 40° C., 20 hours.

For the molecule `CC(C)=CCC[C@](C)(O[C@@H]1O[C@H](CO)[C@@H](O)[C@H](O)[C@H]1O)[C@H]1CC[C@]2(C)[C@@H]1[C@H](O)C[C@@H]1[C@@]3(C)CC[C@H](O)C(C)(C)[C@@H]3CC[C@]12C` [C—K, ginsenoside C-K], in assay [1], the “Percentage of C—K in the reaction product” value (“Percentage of C—K” for short) stood at 97% and the “Percentage of aglycone in the reaction product” value (“Percentage of aglycone” below) stood at 3%.

As to `CC(C)=CCC[C@](C)(O[C@@H]1O[C@H](CO)[C@@H](O)[C@H](O)[C@H]1O)[C@H]1CC[C@]2(C)[C@@H]1[C@H](O)C[C@@H]1[C@@]3(C)CC[C@H](O[C@@H]4O[C@H](CO)[C@@H](O)[C@H](O)[C@H]4O)C(C)(C)[C@@H]3CC[C@]12C` [F2, ginsenoside F2], in assay [1], the “Percentage of C—K” value came to 62%, the “Percentage of F2 in the reaction product” value is 30%, the “Percentage of Rh2 in the reaction product” value (from here on “Percentage of Rh2”) was found to be 3% and the “Percentage of aglycone” value is on record as 5%.

Take `CC(C)=CCC[C@](C)(O[C@@H]1O[C@H](CO)[C@@H](O)[C@H](O)[C@H]1O)[C@H]1CC[C@]2(C)[C@@H]1[C@H](O)C[C@@H]1[C@@]3(C)CC[C@H](O)C(C)(C)[C@@H]3[C@@H](O[C@@H]3O[C@H](CO)[C@@H](O)[C@H](O)[C@H]3O[C@@H]3O[C@@H](C)[C@H](O)[C@@H](O)[C@H]3O)C[C@]12C` [Re, ginsenoside Re]: in assay [2], the “Percentage of Re in the reaction product” value turned out to be 20%, the “Percentage of Rg1 in the reaction product” value came out at 73%, the “Percentage of Rh1 in the reaction product” value worked out at 2% and the “Percentage of aglycone” value was 5%.

In the case of `CC(C)=CCC[C@](C)(O[C@@H]1O[C@H](CO[C@@H]2OC[C@H](O)[C@H](O)[C@H]2O)[C@@H](O)[C@H](O)[C@H]1O)[C@H]1CC[C@]2(C)[C@@H]1[C@H](O)C[C@@H]1[C@@]3(C)CC[C@H](O[C@@H]4O[C@H](CO)[C@@H](O)[C@H](O)[C@H]4O[C@@H]4O[C@H](CO)[C@@H](O)[C@H](O)[C@H]4O)C(C)(C)[C@@H]3CC[C@]12C` [Rb2, ginsenoside Rb2], in assay [3] (pH 5, 30° C., 18 hours), the “Percentage of C—K” value was 17%, the “Percentage of F2 in the reaction product” value is on record as 57%, the “Percentage of Rb2 in the reaction product” value was found to be 7% and the “Percentage of Rd in the reaction product” value turned out to be 13%. In assay [3] (pH 5, 30° C., 18 hours), the “Percentage of Rh2” value worked out at 3% and the “Percentage of aglycone” value is reported as 3%. Moreover, in assay [1], the “Percentage of C—K” value is reported as 54%, the “Percentage of F2 in the reaction product” value is given as 35%, the “Percentage of Rd in the reaction product” value is given as 9% and the “Percentage of Rh2” value is given as 1%. The “Percentage of aglycone” value in assay [1] was found to be 1%. Also, in assay [2], the “Percentage of C—K” value was determined as 54%, the “Percentage of F2 in the reaction product” value is recorded as 35%, the “Percentage of Rd in the reaction product” value was found to be 18% and the “Percentage of aglycone” value turned out to be 3%. Moreover, in assay [4], the “Percentage of F2 in the reaction product” value was 65% and the “Percentage of Rd in the reaction product” value was found to be 35%. For the same molecule, in assay [5] (setting [6]), the “Percentage of F2 in the reaction product” value is 50% and the “Percentage of Rd in the reaction product” value amounted to 45%.

`CC(C)=CCC[C@](C)(O)[C@H]1CC[C@]2(C)[C@@H]1[C@H](O)C[C@@H]1[C@@]3(C)CC[C@H](O)C(C)(C)[C@@H]3[C@@H](O[C@@H]3O[C@H](CO)[C@@H](O)[C@H](O)[C@H]3O[C@@H]3O[C@@H](C)[C@H](O)[C@@H](O)[C@H]3O)C[C@]12C` [Rg2, ginsenoside Rg2]: the “Percentage of Rg2 in the reaction product” value in assay [1] is recorded as 100%. In assay [2], the “Percentage of Rg2 in the reaction product” value stood at 32%, the “Percentage of Rh1 in the reaction product” value was determined as 75% and the “Percentage of aglycone” value stood at 3%.

Take `[Fe+2]` [Fe^++]: the “effect of metal ion on the enzyme activity” value in assay [5] is recorded as “enhance the enzyme activity”.

On to `[Mg+2]` [Mg^++], for which the “effect of metal ions on the enzyme reaction” value in assay [3] is listed as “slightly accelerate the conversion rate”. The “effect of metal ion on the enzyme activity” value in assay [5] is “enhance the enzyme activity”.

On to `CC(C)=CCC[C@](C)(O)[C@H]1CC[C@]2(C)[C@@H]1[C@H](O)C[C@@H]1[C@@]3(C)CC[C@H](O[C@@H]4O[C@H](CO)[C@@H](O)[C@H](O)[C@H]4O)C(C)(C)[C@@H]3CC[C@]12C` [Rh2, ginsenoside Rh2], for which, in assay [1], the “Percentage of Rh2” value came to 89% and the “Percentage of aglycone” value is recorded as 10%.

Turning to `CC(C)=CCC[C@](C)(O)[C@H]1CC[C@]2(C)[C@@H]1[C@H](O)C[C@@H]1[C@@]3(C)CC[C@H](O[C@@H]4O[C@H](CO)[C@@H](O)[C@H](O)[C@H]4O[C@@H]4O[C@H](CO)[C@@H](O)[C@H](O)[C@H]4O)C(C)(C)[C@@H]3CC[C@]12C` [Rg3, ginsenoside Rg3], in assay [3] (pH 5, 30° C., 18 hours), the “Percentage of Rg3 in the reaction product” value (from here on “Percentage of Rg3”) turned out to be 30%, the “Percentage of Rh2” value is 53%, the “Percentage of aglycone” value is reported as 17% and the “conversion rate from Rg3 to Rh2” value was “over 50%”. Also, in assay [1], the “Percentage of Rg3” value amounted to 40%, the “Percentage of Rh2” value turned out to be 57% and the “Percentage of aglycone” value turned out to be 3%. In addition, in assay [2], the “Percentage of Rg3” value is on record as 45%, the “Percentage of Rh2” value is on record as 50% and the “Percentage of aglycone” value is given as 5%.

Turning to `[Pb+2]` [Pb^++], the “effect of metal ions on the enzyme reaction” value in assay [3] is on record as “inhibit the reaction”.
